Laboratory results published in ChEMBL document CHEMBL1159117, “Anti-invasive and anti-angiogenic activities of naturally occurring dibenzodiazepine BU-4664L and its derivatives” (Bioorg Med Chem Lett, 2010).
In brackets after ≈: the same amount, converted by molar mass.

What was measured:
Renca [1] = test: Cytotoxicity against mouse Renca cells; assay type: functional, cell-based
[2] = Cytotoxicity against HUVEC cells at >10 ug/ml; assay type: cell-based; conditions: human, read-out: INH
[3] = Antiinvasive activity against mouse Colon 26-L5 by Matrigel assay; assay type: functional
Renca [4] = test: Antiinvasive activity against mouse Renca by Matrigel assay; assay type: functional, cell-based
Renca [5] = test: Cytotoxicity against mouse Renca cells at >10 ug/ml; assay type: functional
HUVEC [6] = test: Antiangiogenic activity against HUVEC cells assessed as inhibition of vascular formation at >1 ug/ml after 6 hrs by […]; assay type: functional, Homo sapiens
HUVEC [7] = test: Cytotoxicity against HUVEC cells; assay type: cell-based; conditions: Homo sapiens
[8] = Antiinvasive activity against mouse Colon 26-L5 at >1 ug/ml by Matrigel assay; assay type: functional
[9] = Cytotoxicity against mouse Colon 26-L5 cells; assay type: functional, cell-based
HUVEC [10] = test: Antiangiogenic activity against HUVEC cells assessed as inhibition of vascular formation after 6 hrs by […]; assay type: functional, cell-based; conditions: Homo sapiens
Renca [11] = test: Antiinvasive activity against mouse Renca at >1 ug/ml by Matrigel assay; assay type: functional
[12] = Cytotoxicity against mouse Colon 26-L5 cells at >1 ug/ml; assay type: functional
[13] = Antiinvasive activity against mouse Colon 26-L5 assessed as inhibition of cell migration at >1 ug/ml after 6 hrs by Matrigel assay; assay type: functional
[14] = Antiinvasive activity against mouse Colon 26-L5 assessed as inhibition of cell migration after 6 hrs by Matrigel assay; assay type: functional
HUVEC [15] = test: Antiinvasive activity against HUVEC assessed as inhibition of cell migration after 6 hrs by Matrigel assay; assay type: functional, cell-based; conditions: Homo sapiens
[16] = target: 72 kDa type IV collagenase (Homo sapiens, UniProt P08253); test: Inhibition of MMP2
[17] = target: Matrix metalloproteinase-9 (Homo sapiens, UniProt P14780); test: Inhibition of MMP9
Chain of Matrix metalloproteinase-9 (P14780 whole entry): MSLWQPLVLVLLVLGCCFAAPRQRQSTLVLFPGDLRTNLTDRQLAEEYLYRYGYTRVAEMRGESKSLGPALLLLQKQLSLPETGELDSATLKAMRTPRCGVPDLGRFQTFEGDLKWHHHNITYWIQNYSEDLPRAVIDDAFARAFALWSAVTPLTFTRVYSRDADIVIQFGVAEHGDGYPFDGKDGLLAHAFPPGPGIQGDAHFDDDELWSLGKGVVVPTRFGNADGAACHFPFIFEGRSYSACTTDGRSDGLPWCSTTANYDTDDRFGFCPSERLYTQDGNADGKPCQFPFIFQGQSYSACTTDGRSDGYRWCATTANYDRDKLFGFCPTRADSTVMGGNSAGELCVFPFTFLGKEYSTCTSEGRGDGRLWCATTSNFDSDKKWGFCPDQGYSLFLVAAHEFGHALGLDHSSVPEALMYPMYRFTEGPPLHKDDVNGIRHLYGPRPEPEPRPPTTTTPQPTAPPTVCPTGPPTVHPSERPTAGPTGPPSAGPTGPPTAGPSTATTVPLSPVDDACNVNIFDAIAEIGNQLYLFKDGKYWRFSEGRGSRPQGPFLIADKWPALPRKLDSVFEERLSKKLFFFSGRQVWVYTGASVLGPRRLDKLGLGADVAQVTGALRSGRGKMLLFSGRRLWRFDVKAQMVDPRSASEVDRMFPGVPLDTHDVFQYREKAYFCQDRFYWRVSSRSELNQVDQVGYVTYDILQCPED

Chain of 72 kDa type IV collagenase (P08253 whole entry): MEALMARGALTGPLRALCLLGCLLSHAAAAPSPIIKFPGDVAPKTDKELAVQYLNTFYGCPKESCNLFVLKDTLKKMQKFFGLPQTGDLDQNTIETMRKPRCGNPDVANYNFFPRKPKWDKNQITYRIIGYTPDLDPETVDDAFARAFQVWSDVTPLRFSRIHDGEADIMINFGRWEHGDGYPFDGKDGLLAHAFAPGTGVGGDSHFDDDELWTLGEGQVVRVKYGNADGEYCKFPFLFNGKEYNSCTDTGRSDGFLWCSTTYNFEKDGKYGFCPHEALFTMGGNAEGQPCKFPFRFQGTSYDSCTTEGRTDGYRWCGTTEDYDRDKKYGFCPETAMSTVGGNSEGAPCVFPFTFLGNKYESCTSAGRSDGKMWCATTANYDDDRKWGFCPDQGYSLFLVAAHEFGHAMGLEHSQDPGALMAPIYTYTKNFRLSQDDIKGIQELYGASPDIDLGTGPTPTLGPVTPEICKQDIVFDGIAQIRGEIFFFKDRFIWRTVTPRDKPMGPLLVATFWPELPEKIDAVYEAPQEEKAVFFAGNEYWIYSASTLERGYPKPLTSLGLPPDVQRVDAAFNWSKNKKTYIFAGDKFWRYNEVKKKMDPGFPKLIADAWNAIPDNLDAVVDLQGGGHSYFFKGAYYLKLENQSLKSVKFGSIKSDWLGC

| IC50 [3] | IC50 (Renca [4]) | IC50 [14] | IC50 [16] | IC50 [17] | SMILES | IC50 (Renca [1]) | cytotoxicity [2] | inhibition (INH) (Renca [5]) | inhibition (INH) (HUVEC [6]) | IC50 (HUVEC [7]) | inhibition (INH) [8] | IC50 [9] | IC50 (HUVEC [10]) | inhibition (INH) (Renca [11]) | inhibition (INH) [12] | inhibition (INH) [13] | IC50 (HUVEC [15]) |
| --- | --- | --- | --- | --- | --- | --- | --- | --- | --- | --- | --- | --- | --- | --- | --- | --- | --- |
| > 1 µg/mL | > 1 µg/mL | – | – | – | CC(=O)Oc1cc(OC(C)=O)c2c(c1)N(C/C=C(\C)CC/C=C(\C)CCC=C(C)C)C(=O)c1cccc(OC(C)=O)c1N2 | > 10 µg/mL | 0% | 0% | 0% | > 10 µg/mL | 0% | 7.6 µg/mL (≈ 12.9 µM) | > 1 µg/mL | 40% | – | – | – |
| 1 µg/mL (≈ 1.96 µM) | 1 µg/mL (≈ 1.96 µM) | – | – | – | COc1cc(OC)c2c(c1)N(CCC(C)CCCC(C)CCCC(C)C)C(=O)c1cccc(OC)c1N2 (stereo not drawn) | > 10 µg/mL | 32% | 31% | 30% | > 10 µg/mL | – | > 10 µg/mL | > 1 µg/mL | 44% | 8% | – | – |
| > 1 µg/mL | > 1 µg/mL | > 1 µg/mL | – | – | CC(C)CCCC(C)CCCC(C)CCN1C(=O)c2cccc(O)c2Nc2c(O)cc(O)cc21 (stereo not drawn) | > 10 µg/mL | 0% | 0% | – | > 10 µg/mL | 30% | 10 µg/mL (≈ 21.3 µM) | 0.23 µg/mL (≈ 0.491 µM) | 40% | – | 22% | 0.0024 µg/mL (≈ 0.00512 µM) |
| 1 µg/mL (≈ 1.98 µM) | 0.78 µg/mL (≈ 1.55 µM) | 0.67 µg/mL (≈ 1.33 µM) | – | – | COc1cc(OC)c2c(c1)N(C/C=C(\C)CC/C=C(\C)CCC=C(C)C)C(=O)c1cccc(OC)c1N2 | > 10 µg/mL | 0% | 40% | – | > 10 µg/mL | – | > 10 µg/mL | 0.11 µg/mL (≈ 0.218 µM) | – | 30% | – | 0.0076 µg/mL (≈ 0.0151 µM) |
| 1 µg/mL (≈ 2.16 µM) | 0.78 µg/mL (≈ 1.69 µM) | 0.63 µg/mL (≈ 1.36 µM) | 994 nM | 1300 nM | CC(C)=CCC/C(C)=C/CC/C(C)=C/CN1C(=O)c2cccc(O)c2Nc2c(O)cc(O)cc21 [DIAZEPINOMICIN] | 8.3 µg/mL (≈ 17.9 µM) | – | – | – | 2 µg/mL (≈ 4.32 µM) | – | 7.8 µg/mL (≈ 16.9 µM) | 0.72 µg/mL (≈ 1.56 µM) | – | – | – | 0.43 µg/mL (≈ 0.93 µM) |
| – | – | – | – | – | CO[C@@H]1[C@H](OC(=O)/C=C/C=C/C=C/C=C/C(=O)O)CC[C@]2(CO2)[C@H]1[C@@]1(C)O[C@@H]1CC=C(C)C [FUMAGILLIN] | – | – | – | – | – | – | – | 0.034 µg/mL (≈ 0.0741 µM) | – | – | – | 0.023 µg/mL (≈ 0.0502 µM) |
